Source: patent publication US20140162942A1, “INHIBITION OF CYP3A DRUG METABOLISM” (priority 2010, published 2014)
Read-outs that look alike come from different tables or passages of the source.

What was measured:
CYP3A4/5 = CYP3A4/5 inhibition, testosterone 6β-hydroxylation in human liver microsomes; type: in vitro ADME; conditions: for Potential for Time-Dep. Inhibition: comparison with and without 30-minute pre-incubation; for IC50 at 5 min / inhibition at 5 min, 100 µM: human, pooled human liver microsomes, pH 7.4, probe testosterone (6β-hydroxylation)
Description: (§1) The basis for many of the following incubation conditions is described in the following references: Madan, et al., 2002,^(1) Huang, 2004,^(3) Ogilvie, et al., 2006,^(6) Pearce, et al., 1996,^(7) Tucker, et al., 2001,^(4) and Walsky and Obach, 2004.^(5) In general, incubations were conducted at approximately 37° C. in 400-μL incubation mixtures (target pH 7.4) containing high purity water, potassium phosphate buffer (50 mM), MgCl2 (3 mM), EDTA (1 mM), an NADPH-generating system [always the mixture of the following: NADP (1 mM), glucose-6-phosphate (5 mM), glucose-6-phosphate dehydrogenase (1 Unit/mL)], and marker substrate at the final concentrations indicated. Pooled human liver microsomes (from sixteen individuals) were used as the source of enzymes (Section 1.3.1.2). The concentrations of marker substrates were based on the Km and Vmax data that were determined previously (data not shown).
(§2) Due to the possibility that boceprevir may bind to microsomal protein or lipids, an attempt was made to design these experiments such that, in as many cases as possible, the microsomal protein, incubation time, and phosphate buffer concentration were 0.1 mg/mL, 5 minutes and 50 mM, respectively, for assays performed with human liver microsomes (Table 1). […] Since it is not imperative that the concentration of marker substrates be exactly equal to Km, the marker substrate concentrations were rounded up or down, as applicable, to simplify the experimental design (data not shown). […] Thus, the final incubation concentration of phenacetin was 60 μM (Table 1).
(§3) The ability of boceprevir to inhibit the CYP enzymes listed in Section 1.2.1 was investigated with a pool of sixteen individual human liver microsomal samples at the concentrations indicated in Table 1. Aliquots of the stock and/or working solutions of boceprevir were manually added to buffer mixtures containing the components described in Section 1.3.21. Incubation mixtures were prepared in bulk to obviate the need for directly pipetting very small volumes (i.e., 1 μL or less). Incubations containing no boceprevir (0 μM) contained the vehicle used to dissolve boceprevir (i.e., 1% methanol).
(§4) The Tecan liquid handling system conducted all remaining incubation steps, with the exception of the centrifugation. Aliquots of the buffer mixtures were then automatically added to 96-well plates at the appropriate locations in duplicate. Aliquots of a substrate working solution were added to the 96-well plates, prior to initiating reactions, to give the final concentrations indicated in Table 1. Reactions were initiated with the addition of an aliquot of an NADPH-generating system. Reactions were automatically terminated at approximately 5 minutes, by the addition of the appropriate internal standard (Table 5) and stop reagent; acetonitrile. Precipitated protein was removed by centrifugation (920 g for 10 minutes at 10° C.). Standards and quality control samples were similarly prepared with the addition of authentic metabolite standards.
(§5) To examine its ability to act as a time-dependent inhibitor, boceprevir (at the same concentrations used to evaluate direct inhibition) was pre-incubated at 37±1° C., in duplicate, with human liver microsomes and an NADPH-generating system for approximately 30 minutes. This pre-incubation allowed for the generation of intermediates that could inhibit human CYP enzymes. The pre-incubations were initiated with the addition of an aliquot of an NADPH-generating system. […] Reactions were automatically terminated, at approximately 5 minutes, by the addition of the appropriate internal standard (Table 5) and stop reagent; acetonitrile. Precipitated protein was removed by centrifugation (920 g for 10 minutes at 10° C.). Incubations containing no boceprevir (0 μM) and incubations that contained boceprevir but were not pre-incubated, served as negative controls.

CYP2C19 = biological target: T1, CYP2C19 (Homo sapiens, UniProt P33261); assay: CYP2C19 inhibition, S-mephenytoin 4′-hydroxylation in human liver microsomes; type: in vitro ADME; conditions: for Potential for Time-Dep. Inhibition: comparison with and without 30-minute pre-incubation; for inhibition at 5 min, 100 µM: human, pH 7.4, probe S-mephenytoin (4′-hydroxylation)
T1 construct: Pooled human liver microsomes (from sixteen individuals) were used as the source of enzymes; tissue XenoTech, LLC; host or cells: human liver microsomes, pool of sixteen donors
Description: as §1, §2, §3, §4, §5

CYP2D6 = biological target: T2, CYP2D6 (Homo sapiens, UniProt P10635); assay: CYP2D6 inhibition, dextromethorphan O-demethylation in human liver microsomes; type: in vitro ADME; conditions: for Potential for Time-Dep. Inhibition: comparison with and without 30-minute pre-incubation; for inhibition at 5 min, 100 µM: human, pH 7.4, probe dextromethorphan (O-demethylation)
T2 construct: Pooled human liver microsomes (from sixteen individuals) were used as the source of enzymes; tissue XenoTech, LLC; host or cells: human liver microsomes, pool of sixteen donors
Description: as §1, §2, §3, §4, §5

CYP1A2 = biological target: T3, CYP1A2 (Homo sapiens, UniProt P05177); assay: CYP1A2 inhibition, phenacetin O-deethylation in human liver microsomes; type: in vitro ADME; conditions: for Potential for Time-Dep. Inhibition: comparison with and without 30-minute pre-incubation; for inhibition at 5 min, 100 µM: human, pH 7.4, probe phenacetin (O-deethylation), 60 μM
T3 construct: Pooled human liver microsomes (from sixteen individuals) were used as the source of enzymes; tissue XenoTech, LLC; host or cells: human liver microsomes, pool of sixteen donors
T3 sequence (P05177 1-516): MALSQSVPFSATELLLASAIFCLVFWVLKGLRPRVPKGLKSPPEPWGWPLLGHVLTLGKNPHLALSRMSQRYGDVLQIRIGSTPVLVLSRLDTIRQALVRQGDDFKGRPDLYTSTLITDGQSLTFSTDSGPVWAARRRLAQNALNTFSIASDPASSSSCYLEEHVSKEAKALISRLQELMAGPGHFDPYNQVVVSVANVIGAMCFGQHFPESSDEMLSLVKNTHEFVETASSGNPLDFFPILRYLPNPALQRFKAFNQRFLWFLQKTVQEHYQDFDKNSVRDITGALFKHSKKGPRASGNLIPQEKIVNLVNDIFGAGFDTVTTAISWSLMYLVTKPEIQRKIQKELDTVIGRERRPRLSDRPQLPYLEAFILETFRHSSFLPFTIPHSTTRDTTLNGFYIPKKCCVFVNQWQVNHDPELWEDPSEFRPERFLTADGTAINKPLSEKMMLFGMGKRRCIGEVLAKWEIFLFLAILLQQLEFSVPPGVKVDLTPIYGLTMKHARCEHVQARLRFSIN
Description: as §1, §2, §3, §4, §5

[1] = Qualitative visual solubility in the test system; type: physicochemical; conditions: 10 μL of 10 mM methanol stock in 990 μL buffer with human liver microsomes, pH 7.4
Description: A stock solution of boceprevir (target concentration of 10 mM) in methanol was prepared and solubility testing was conducted to qualitatively assess boceprevir solubility in the test system. An aliquot (10 μL) of the highest stock boceprevir solution (10 mM in methanol) was added to a 990-μL mixture (target pH 7.4) containing high purity water, potassium phosphate buffer (50 mM), MgCl2 (3 mM), EDTA (1 mM), and human liver microsomes (0.0125 and 0.1 mg/mL) at the final concentrations listed (for a total volume of 1000 μt). […] The stock solution (10 mM boceprevir for IC50 determinations), along with dilutions to working solutions (ranging from 0.01 to 3.0 mM boceprevir) were prepared fresh each day experiments were performed. […] These solutions were prepared fresh on the day the Ki determination experiment was performed. Additionally, a stock concentration of 0.3 mM was used in the NADPH dependence/effects of dilution, as well as the MIC formation experiment.

[2] = time-dependent inhibition, 30-minute pre-incubation
[3] = direct inhibition, zero-minute pre-incubation, pooled human liver microsomes
[4] = pooled human liver microsomes, direct inhibition, zero-minute pre-incubation, read-out: Max. Inhib. at 100 μM
[5] = pooled human liver microsomes, time-dependent inhibition, 30-minute pre-incubation, read-out: Maximum Inhibition at 100 μM

T2 sequence (P10635 whole entry): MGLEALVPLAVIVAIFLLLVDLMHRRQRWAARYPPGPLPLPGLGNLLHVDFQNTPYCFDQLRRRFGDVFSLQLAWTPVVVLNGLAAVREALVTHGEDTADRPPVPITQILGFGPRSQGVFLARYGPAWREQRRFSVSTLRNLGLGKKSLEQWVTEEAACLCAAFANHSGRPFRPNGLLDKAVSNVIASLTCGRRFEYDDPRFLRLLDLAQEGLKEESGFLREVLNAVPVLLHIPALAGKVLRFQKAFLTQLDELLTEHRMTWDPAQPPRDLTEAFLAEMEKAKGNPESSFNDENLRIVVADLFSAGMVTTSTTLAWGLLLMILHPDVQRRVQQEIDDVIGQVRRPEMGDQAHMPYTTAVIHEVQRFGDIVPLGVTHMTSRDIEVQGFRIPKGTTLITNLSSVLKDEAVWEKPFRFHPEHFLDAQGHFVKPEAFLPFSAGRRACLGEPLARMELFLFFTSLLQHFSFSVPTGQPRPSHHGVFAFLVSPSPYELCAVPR
T1 sequence (P33261 whole entry): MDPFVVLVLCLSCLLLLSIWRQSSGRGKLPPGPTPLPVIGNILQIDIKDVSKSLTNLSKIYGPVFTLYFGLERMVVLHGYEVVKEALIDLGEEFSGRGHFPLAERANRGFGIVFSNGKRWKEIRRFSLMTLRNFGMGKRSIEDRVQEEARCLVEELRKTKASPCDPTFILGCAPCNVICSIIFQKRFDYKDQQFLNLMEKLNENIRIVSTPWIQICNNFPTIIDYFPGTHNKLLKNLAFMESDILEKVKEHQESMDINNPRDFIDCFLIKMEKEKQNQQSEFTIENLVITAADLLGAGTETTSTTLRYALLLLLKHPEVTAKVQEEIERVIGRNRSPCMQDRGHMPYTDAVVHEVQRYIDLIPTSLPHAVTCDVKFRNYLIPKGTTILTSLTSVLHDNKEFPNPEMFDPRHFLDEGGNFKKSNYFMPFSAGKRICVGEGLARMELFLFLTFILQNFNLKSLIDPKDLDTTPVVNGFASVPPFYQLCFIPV

CC(C)(C)NC(=O)NC(C(=O)N1CC2C([C@H]1C(=O)NC(CC1CCC1)C(=O)C(N)=O)C2(C)C)C(C)(C)C (stereo partly drawn) [Boceprevir, (1R,2S,5S)—N-[(2Ξ)-4-amino-1-cyclobutyl-3,4-dioxobutan-2-yl]-3-{(2S)-2-[(tert-butylcarbamoyl)amino]-3,3-dimethylbutanoyl}-6,6-dimethyl-3-azabicyclo[3.1.0]hexane-2-carboxamide]
Potential for Time-Dep. Inhibition (CYP3A4/5): yes^c | Potential for Time-Dep. Inhibition (CYP3A4/5; listed as boceprevir): caused time-dependent inhibition | IC50 at 5 min (CYP3A4/5; direct inhibition, zero-minute pre-incubation): > 100 µM | inhibition at 5 min, 100 µM (CYP3A4/5; direct inhibition, zero-minute pre-incubation, read-out: Max. Inhib. at 100 μM): 41% | IC50 at 5 min (CYP3A4/5; [2]): 2.3 µM | inhibition at 5 min, 100 µM (CYP3A4/5; time-dependent inhibition, 30-minute pre-incubation, read-out: Maximum Inhibition at 100 μM): 95% | Potential for Time-Dep. Inhibition (CYP2C19): little or no | Potential for Time-Dep. Inhibition (CYP2C19; listed as boceprevir): no discernable time-dependent inhibition | IC50 (CYP2C19; [3]): > 100 µM | inhibition at 5 min, 100 µM (CYP2C19; [4]): 25% | inhibition at 5 min, 100 µM (CYP2C19; [5]): 14% | IC50 (CYP2C19; [2]): > 100 µM | Potential for Time-Dep. Inhibition (CYP2D6): little or no | Potential for Time-Dep. Inhibition (CYP2D6; listed as boceprevir): no discernable time-dependent inhibition | IC50 (CYP2D6; [3]): > 100 µM | inhibition at 5 min, 100 µM (CYP2D6; [4]): 45% | inhibition at 5 min, 100 µM (CYP2D6; [5]): 30% | IC50 (CYP2D6; [2]): > 100 µM | Potential for Time-Dep. Inhibition (CYP1A2): little or no | Potential for Time-Dep. Inhibition (CYP1A2; listed as boceprevir): no discernable time-dependent inhibition | IC50 (CYP1A2; [3]): > 100 µM | inhibition at 5 min, 100 µM (CYP1A2; [4]): 22% | inhibition at 5 min, 100 µM (CYP1A2; [5]): 9.8% | IC50 (CYP1A2; [2]): > 100 µM | Solubility in the test system (qualitative visual comparison) [1]: soluble
